Data published in patent US10227347B2, “Purinyl-N-hydroxyl pyrimidine formamide derivative, preparation methods and uses thereof” (Guizhou Bailing Group Pharmaceutical CO., LTD., priority 2015, dated 2019).

Assays:
mTOR = biological target: T1, mTOR (Homo sapiens, UniProt P42345); assay: mTOR activity inhibition (ULight-4E-BP1 peptide); type: biochemical; details: Table 1, graded
T1 construct: purchased Millipore 14-770
Method: mTOR protein is purchased from Millipore Company (Catalog No.: 14-770). The reaction buffer system comprises 50 mM HEPES, 10 mM MgCl2, 1 mM EGTA, 3 mM […], 0.01% Tween-20 (purchased from Chengdu Kelong Chemical Regent Factory) and 2 mM DTT. The pH value of the reaction buffer is 7.5. Preparing 10 μL reaction system in corresponding wells of the 384 well plate, which contains the compositions as: the compound with designed concentration (or blank control), mTOR protein (with the concentration of 2.5 nM), ULight-4E-BP1 (containing the 37th and the 46th threonine residues, Thr37/46) peptide (purchased from PE Company, Catalog No.: TRF0128-M) and ATP substrates (ULight-4E-BP1 peptide, with the concentration of 50 nM and ATP, with the concentration of […]). Mixing it evenly for incubation under ambient temperature for 1 h; adding 10 μL testing liquid containing EDTA (ethylenediaminetetraacetic acid) and Eu-anti-phosphorylation-4E-BP1 (Thr37/46) antibody (purchased from PE Company, Catalog No.: TRF0216-M) into the reaction wells (after the testing liquid is added, the concentration of EDTA is 8 mM and the concentration of Eu-phosphorylation-4E-BP1 antibody is 2 nM); mixing it evenly and incubating it for 1 h under ambient temperature, then measuring the fluorescence intensity with a microplate reader and analyzing the result data with the software GraphPad Prism.
Calculating the value of IC50 as per the formula: Y=background data+(top data−background data)/(1+10^((Log IC50−X)*rate of curve))
Where, Y refers to the inhibition ratio (%) and X refers to the compound concentration.

[1] = system: human breast cancer MDA-MB-231 subcutaneous tumor; assay: Subcutaneous tumor model, human breast cancer MDA-MB-231; details: once per 2 days
Method: (§1) Cell MM1S is cultured in RPMI1640 medium (HyClone) which contains 10% fetal calf serum (Hohhot Caoyuan Lvye Bioengineering Material Co., Ltd.) and 100 U/mL penicillin and streptomycin (Beyotime).
(§2) 3) Inoculation, grouping and treatment: collecting cells in logarithmic phase under aseptic conditions and counting; diluting the single cell suspension with the medium containing neither fetal calf serum nor antibiotics to 1×10^7-8 cell/mL for standby. Mixing the cell suspension; injecting 100 μL of cell suspension (5×10^6-2×10^7 cells) subcutaneously with a 1 mL injector on the right side of the back of animals. Weeding out the animals with oversized and undersized tumor when the tumor grows to an average volume of about 120 mm^3 and grouping the qualified animals for treatment and drug administration. Refer to Table 7 for each grouping model and drug administration frequency. Measuring the weight of each model per 2 days and measuring the length and width of the tumor with a vernier caliper; killing the tested animals through cervical dislocation and peeling off their tumors for weight measuring and photographing. Then calculating the tumor inhibition ratio (%) and evaluating the inhibition intensity to tumor with such tumor inhibition ratio.

[2] = system: human B-cell lymphoma Raji subcutaneous tumor; assay: Subcutaneous tumor model, human B-cell lymphoma Raji; details: once per 2 days, intraperitoneal
[3] = system: human multiple myeloma MM1S subcutaneous tumor; assay: Subcutaneous tumor model, human multiple myeloma MM1S; details: once per 2 days
Method: as §1, §2

[4] = system: human breast cancer MCF-7 subcutaneous tumor; assay: Subcutaneous tumor model, human breast cancer MCF-7; details: once per 2 days
[5] = system: human colon cancer hct116 subcutaneous tumor; assay: Subcutaneous tumor model, human colon cancer hct116; details: once per 2 days, intravenous

T1 sequence (P42345 1362-2549 limits assumed): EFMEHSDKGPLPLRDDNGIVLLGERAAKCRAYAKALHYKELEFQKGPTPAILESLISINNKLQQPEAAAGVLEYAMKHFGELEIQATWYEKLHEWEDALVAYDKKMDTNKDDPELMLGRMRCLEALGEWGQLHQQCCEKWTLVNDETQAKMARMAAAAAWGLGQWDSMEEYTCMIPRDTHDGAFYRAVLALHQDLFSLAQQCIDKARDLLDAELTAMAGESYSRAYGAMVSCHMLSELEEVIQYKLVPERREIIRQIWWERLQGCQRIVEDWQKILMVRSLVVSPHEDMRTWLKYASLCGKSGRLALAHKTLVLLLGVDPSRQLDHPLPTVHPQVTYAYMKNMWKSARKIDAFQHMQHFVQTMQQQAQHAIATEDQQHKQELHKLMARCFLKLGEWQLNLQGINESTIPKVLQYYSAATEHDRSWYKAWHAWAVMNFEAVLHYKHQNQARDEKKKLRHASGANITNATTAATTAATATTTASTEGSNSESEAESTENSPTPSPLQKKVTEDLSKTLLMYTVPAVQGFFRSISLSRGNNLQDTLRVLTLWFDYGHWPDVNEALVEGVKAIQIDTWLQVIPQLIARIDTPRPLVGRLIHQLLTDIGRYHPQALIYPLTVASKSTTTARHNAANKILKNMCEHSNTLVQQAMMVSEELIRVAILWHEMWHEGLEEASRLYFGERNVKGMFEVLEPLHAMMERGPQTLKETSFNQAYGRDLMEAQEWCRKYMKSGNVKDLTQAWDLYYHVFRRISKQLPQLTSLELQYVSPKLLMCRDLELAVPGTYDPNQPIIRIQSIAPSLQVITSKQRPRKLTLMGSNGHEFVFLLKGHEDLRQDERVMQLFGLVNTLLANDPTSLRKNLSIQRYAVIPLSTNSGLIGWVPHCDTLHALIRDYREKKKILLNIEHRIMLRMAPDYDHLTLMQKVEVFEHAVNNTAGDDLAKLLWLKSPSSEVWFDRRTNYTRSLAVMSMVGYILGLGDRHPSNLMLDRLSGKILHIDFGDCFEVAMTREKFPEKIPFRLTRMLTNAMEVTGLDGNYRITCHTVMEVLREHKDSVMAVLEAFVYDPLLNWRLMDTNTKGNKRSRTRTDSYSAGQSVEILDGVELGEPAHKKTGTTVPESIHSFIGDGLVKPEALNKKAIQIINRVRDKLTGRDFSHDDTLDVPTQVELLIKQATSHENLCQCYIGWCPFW

Compound `COc1ccc(-c2nc(N3CCOCC3)c3nc(CN(C)c4ncc(C(=O)NO)cn4)n(C)c3n2)cn1` [CLJ-1, 2-(((2-(6-methoxypyridine-3-yl)-9-methyl-6-morpholine-9H-purine-8-yl))methyl(methyl)amino)-N-hydroxyl pyrimidine-5-formamide] has an IC50 (mTOR) of 1 to 10 µM.

Compound `CN(Cc1nc2c(N3CCOCC3)nc(-c3cnc(N)nc3)nc2n1C)c1ncc(C(=O)NO)cn1` [CLJ-11, 2-(((2-(2-aminopyrimidine-5-yl)-9-methyl-6-morpholine-9H-purine-8-yl))methyl(methyl)amino)-N-hydroxyl pyrimidine-5-formamide] has an IC50 (mTOR) of 0.1 to 1 µM.

In the case of `CN(Cc1nc2c(N3CCOCC3)nc(-c3ccc(N)cc3)nc2n1C)c1ncc(C(=O)NO)cn1` [CLJ-44], the Death ([1]; 2.5 mg/kg, intravenous) is reported as 0/6, the “Inhibitory rate (%)” value ([1]; 2.5 mg/kg, intravenous) is reported as 72.1% and the Death ([1]; 5 mg/kg, intravenous) is reported as 0/6. For the same compound, the “Inhibitory rate (%)” value ([1]; 5 mg/kg, intravenous) was 83.9%, the Death ([1]; 10 mg/kg, intravenous) was 0/6 and the “Inhibitory rate (%)” value ([1]; 10 mg/kg, intravenous) was 86.9%. The Death ([2]; 5 mg/kg) was 0/6, the “Inhibitory rate (%)” value ([2]; 5 mg/kg) was 76.96% and the Death ([2]; 10 mg/kg) was 0/6. The “Inhibitory rate (%)” value ([2]; 10 mg/kg) was 97.34%, the Death ([2]; 20 mg/kg) was 0/6 and the “Inhibitory rate (%)” value ([2]; 20 mg/kg) was 99.29%. The Death ([3]; 2.5 mg/kg, intravenous) was 0/7, the “Inhibitory rate (%)” value ([3]; 2.5 mg/kg, intravenous) was 45.09% and the Death ([3]; 5 mg/kg, intravenous) was 0/7. For the same compound, the “Inhibitory rate (%)” value ([3]; 5 mg/kg, intravenous) was 69.65%, the Death ([3]; 10 mg/kg, intravenous) was 0/7 and the “Inhibitory rate (%)” value ([3]; 10 mg/kg, intravenous) was 71.94%. The Death ([4]; 2.5 mg/kg, intravenous) was 0/6, the “Inhibitory rate (%)” value ([4]; 2.5 mg/kg, intravenous) was 69.58% and the Death ([4]; 5 mg/kg, intravenous) was 0/6. The “Inhibitory rate (%)” value ([4]; 5 mg/kg, intravenous) was 77.58%, the Death ([4]; 10 mg/kg, intravenous) was 0/6 and the “Inhibitory rate (%)” value ([4]; 10 mg/kg, intravenous) was 82.24%. The Death ([5]; 2.5 mg/kg) was 0/6, the “Inhibitory rate (%)” value ([5]; 2.5 mg/kg) was 49.4% and the Death ([5]; 5 mg/kg) was 0/6. For the same compound, the “Inhibitory rate (%)” value ([5]; 5 mg/kg) was 53.3%, the Death ([5]; 10 mg/kg) was 0/6 and the “Inhibitory rate (%)” value ([5]; 10 mg/kg) was 68.2%.

For `Cc1[nH]c2ccccc2c1CCNCc1ccc(/C=C/C(=O)NO)cc1` [LBH589, panobinostat, reference compound], the Death ([1]; 10 mg/kg, intraperitoneal) was 0/6, the “Inhibitory rate (%)” value ([1]; 10 mg/kg, intraperitoneal) was 77.95% and the Death ([2]; 10 mg/kg) was 0/6. The “Inhibitory rate (%)” value ([2]; 10 mg/kg) was 54.93%, the Death ([3]; 10 mg/kg, intraperitoneal) was 0/7 and the “Inhibitory rate (%)” value ([3]; 10 mg/kg, intraperitoneal) was 47.33%. For the same compound, the Death ([4]; 10 mg/kg, intraperitoneal) was 0/6 and the “Inhibitory rate (%)” value ([4]; 10 mg/kg, intraperitoneal) was 75.69%.
